Active and inactive are the calls of the source. The rule behind the calls is not given here.

The results in this text go back to ChEMBL document CHEMBL1157672, “Detection of multiple network-based allosteric interactions between peptides and arrays of DNA binding sites” (Bioorg Med Chem, 2010).

Assay type in all cases: nucleic-acid assay
In assay [1] the test system is Nucleic Acid. Nature of the assay: Binding affinity to 5'-AATACCG-3' sequence of Escherichia coli 158-mer duplex pBR322 fragment at 1 to 3000 nM after 60 mins by DNase I footprinting.
The subject of assay [2] is Nucleic Acid. Nature of the assay: Binding affinity to 5'-AGAAAATACCG-3' sequence of Escherichia coli 158-mer duplex pBR322 fragment at 1 to 3000 nM after 60 mins by DNase I footprinting.
The test system of assay [3] is Nucleic Acid. Nature of the assay: Binding affinity to 5'-TTT-3' sequence of Escherichia coli 135-mer duplex pBR322 fragment at 12 nM after 60 mins by DNase I footprinting.
Assay [4] deals with Nucleic Acid. In words: Binding affinity to 5'-TTTCTCC-3' sequence of Escherichia coli 135-mer duplex pBR322 fragment at 1 to 3000 nM after 60 mins by DNase I footprinting.
In assay [5] the test system is Nucleic Acid. Nature of the assay: Binding affinity to 5'-AATACCG-3' sequence of Escherichia coli 158-mer duplex pBR322 fragment after 60 mins by DNase I footprinting.
The test system of assay [6] is Nucleic Acid. Nature of the assay: Binding affinity to 5'-AGAAAATACCG-3' sequence of Escherichia coli 158-mer duplex pBR322 fragment after 60 mins by DNase I footprinting.
The subject of assay [7] is Nucleic Acid. Nature of the assay: Binding affinity to 5'-TTT-3' sequence of Escherichia coli 135-mer duplex pBR322 fragment after 60 mins by DNase I footprinting.
Assay [8] relates to Nucleic Acid. Nature of the assay: Binding affinity to 5'-TTTCTCC-3' sequence of Escherichia coli 135-mer duplex pBR322 fragment after 60 mins by DNase I footprinting.
Assay [9] has as its system Nucleic Acid. In words: Binding affinity to d(AAAA)-d(TTTT) sequence of Escherichia coli 158-mer duplex pBR322 fragment assessed as allosteric interaction after 60 mins by DNase I footprinting.
The subject of assay [10] is Nucleic Acid. In words: Binding affinity to d(AAA)-d(TTT) sequence of Escherichia coli 135-mer duplex pBR322 fragment assessed as allosteric interaction after 60 mins by DNase I footprinting.
Assay [11] concerns Nucleic Acid. Nature of the assay: Binding affinity to 5'-GAAAATA-3' sequence of Escherichia coli 158-mer duplex pBR322 fragment at 1 to 3000 nM after 60 mins by DNase I footprinting.
Assay [12] has as its system Nucleic Acid. Nature of the assay: Binding affinity to 5'-AATACC-3' sequence of Escherichia coli 158-mer duplex pBR322 fragment at 1 to 3000 nM after 60 mins by DNase I footprinting.
Assay [13] concerns Nucleic Acid. Nature of the assay: Binding affinity to 5'-TTTTCTCCT-3' sequence of Escherichia coli 135-mer duplex pBR322 fragment at 1 to 3000 nM after 60 mins by DNase I footprinting.
The subject of assay [14] is Nucleic Acid. Nature of the assay: Binding affinity to 5'-TT-3' sequence of Escherichia coli 135-mer duplex pBR322 fragment at 1 to 3000 nM after 60 mins by DNase I footprinting.
Assay [15] concerns Nucleic Acid. In words: Binding affinity to 5'-GAAAATA-3' sequence of Escherichia coli 158-mer duplex pBR322 fragment after 60 mins by DNase I footprinting.
The subject of assay [16] is Nucleic Acid. Nature of the assay: Binding affinity to 5'-AATACC-3' sequence of Escherichia coli 158-mer duplex pBR322 fragment after 60 mins by DNase I footprinting.
The subject of assay [17] is Nucleic Acid. In words: Binding affinity to 5'-TTTTCTCCT-3' sequence of Escherichia coli 135-mer duplex pBR322 fragment after 60 mins by DNase I footprinting.
For assay [18], the system named is Nucleic Acid. Nature of the assay: Binding affinity to 5'-TT-3' sequence of Escherichia coli 135-mer duplex pBR322 fragment after 60 mins by DNase I footprinting.
Assay [19] has as its system Nucleic Acid. In words: Binding affinity to 5'-AAAAT-3' sequence of Escherichia coli 81-mer duplex pBR322 fragment after 60 mins by DNase I footprinting.
For assay [20], the system named is Nucleic Acid. In words: Binding affinity to 5'-TTTTCTC-3' sequence of Escherichia coli 81-mer duplex pBR322 fragment after 60 mins by DNase I footprinting.
Assay [21] deals with Nucleic Acid. Nature of the assay: Binding affinity to 11-mer duplex 4A-4T DNA after 60 mins by circular dichroism spectroscopy.
Assay [22] concerns Nucleic Acid. Nature of the assay: Binding affinity to 11-mer duplex 4A-4T DNA at 0.2 uM after 60 mins by circular dichroism spectroscopy.
Assay [23] has as its system Nucleic Acid. Nature of the assay: Binding affinity to 11-mer duplex 3A-3T DNA at 0.2 to 7 uM after 60 mins by circular dichroism spectroscopy. Background: Circular dichroism is the unequal absorption of left and right circularly polarised light.
For assay [24], the system named is Nucleic Acid. In words: Binding affinity to 11-mer duplex 4A-4T DNA minor groove at peptide to duplex ratio of 2:1 after 60 mins by circular dichroism spectroscopy.
In assay [25] the test system is Nucleic Acid. Nature of the assay: Binding affinity to 11-mer duplex 3A-3T DNA minor groove at peptide to duplex ratio of 2:1 after 60 mins by circular dichroism spectroscopy.
For assay [26], the system named is Nucleic Acid. In words: Binding affinity to 5'-TT-3' sequence of Escherichia coli 135-mer duplex pBR322 fragment at 50 to 2000 nM after 60 mins by DNase I footprinting.
Assay [27] has as its system Nucleic Acid. In words: Binding affinity to 5'-AGAAAATAC-3' sequence of Escherichia coli 158-mer duplex pBR322 fragment at 10 to 2000 nM after 60 mins by DNase I footprinting.
Assay [28] concerns Nucleic Acid. Nature of the assay: Binding affinity to 5'-AATAC-3' sequence of Escherichia coli 158-mer duplex pBR322 fragment at 10 to 2000 nM after 60 mins by DNase I footprinting.
For assay [29], the system named is Nucleic Acid. In words: Binding affinity to 5'-TTTCTCCT-3' sequence of Escherichia coli 135-mer duplex pBR322 fragment at 50 to 2000 nM after 60 mins by DNase I footprinting.
The subject of assay [30] is Nucleic Acid. Nature of the assay: Binding affinity to 5'-AGAAAATAC-3' sequence of Escherichia coli 158-mer duplex pBR322 fragment after 60 mins by DNase I footprinting.
Assay [31] relates to Nucleic Acid. In words: Binding affinity to 5'-AATAC-3' sequence of Escherichia coli 158-mer duplex pBR322 fragment after 60 mins by DNase I footprinting.
Assay [32] concerns Nucleic Acid. Nature of the assay: Binding affinity to 5'-TTTCTCCT-3' sequence of Escherichia coli 135-mer duplex pBR322 fragment after 60 mins by DNase I footprinting.
In assay [33] the test system is Nucleic Acid. Nature of the assay: Binding affinity to 5'-TTTCT-3' sequence of Escherichia coli 81-mer duplex pBR322 fragment after 60 mins by DNase I footprinting.
The test system of assay [34] is Nucleic Acid. In words: Binding affinity to 11-mer duplex 4A-4T DNA at 0.2 to 7 uM after 60 mins by circular dichroism spectroscopy.

As to `Cn1cc(NC(=O)c2cc(NC(=O)[C@@H](CCCCN)NC(=O)[C@H](CCCNC(=N)N)NC(=O)[C@@H]3CCCN3C(=O)[C@@H](N)Cc3cnc[nH]3)cn2C)cc1C(=O)Nc1cc(C(=O)Nc2cc(C(=O)N[C@@H](Cc3cnc[nH]3)C(=O)N3CCC[C@H]3C(=O)N[C@@H](CCCNC(=N)N)C(=O)N[C@@H](CCCCN)C(N)=O)n(C)c2)n(C)c1`, the outcome with Nucleic Acid [1], with Nucleic Acid [2], in the assay on Nucleic Acid [3], with Nucleic Acid [4], in the assay with Nucleic Acid [9] and in the assay on Nucleic Acid [10] was Active. The Ka in the assay with Nucleic Acid [5] was 6.7 ×10⁷ /M; with Nucleic Acid [6], 3.2 ×10⁶ /M; with Nucleic Acid [7], 3.7 ×10⁶ /M; in the assay on Nucleic Acid [8], 3.8 ×10⁶ /M.
With `Cn1cc(NC(=O)c2cc(NC(=O)[C@@H](CCCCN)NC(=O)[C@H](CCCNC(=N)N)NC(=O)[C@@H]3C[C@@H](O)CN3C(=O)[C@@H](N)Cc3cnc[nH]3)cn2C)cc1C(=O)Nc1cc(C(=O)N[C@@H](CCCCN)C(=O)N[C@@H](CCCNC(=N)N)C(N)=O)n(C)c1`, the result with Nucleic Acid [11], in the assay with Nucleic Acid [12], in the assay with Nucleic Acid [13], in the assay on Nucleic Acid [14], with Nucleic Acid [9] and in the assay on Nucleic Acid [10] was Active. The outcome with Nucleic Acid [22], with Nucleic Acid [23], in the assay with Nucleic Acid [24] and in the assay with Nucleic Acid [25] was Active. In addition, the Ka turned out to be 3.8 ×10⁶ /M in the assay on Nucleic Acid [15]; 2.5 ×10⁶ /M in the assay on Nucleic Acid [16]; 2.2 ×10⁶ /M in the assay with Nucleic Acid [17]; 2.7 ×10⁶ /M in the assay on Nucleic Acid [18]; 2.1 ×10⁶ /M in the assay with Nucleic Acid [19]; 1.9 ×10⁶ /M in the assay with Nucleic Acid [20]. Further, in the assay with Nucleic Acid [21], the Activity entry is “Dose-dependent effect”. Moreover, the outcome in the assay with Nucleic Acid [26] was inactive.
As to `Cn1cc(NC(=O)c2cc(NC(=O)[C@@H](CCCCN)NC(=O)[C@H](CCCNC(=N)N)NC(=O)[C@@H]3C[C@@H](O)CN3C(=O)[C@@H](N)Cc3cnc[nH]3)cn2C)cc1C(=O)Nc1cc(C(=O)Nc2cc(C(=O)N[C@@H](Cc3cnc[nH]3)C(=O)N3C[C@H](O)C[C@H]3C(=O)N[C@@H](CCCNC(=N)N)C(=O)N[C@@H](CCCCN)C(N)=O)n(C)c2)n(C)c1`, the result with Nucleic Acid [27], with Nucleic Acid [28], with Nucleic Acid [29], in the assay on Nucleic Acid [9], in the assay on Nucleic Acid [10] and in the assay on Nucleic Acid [23] was Active. Further, the result with Nucleic Acid [34], in the assay on Nucleic Acid [24] and in the assay with Nucleic Acid [25] was Active. Moreover, the Ka amounted to 3.4 ×10⁶ /M in the assay on Nucleic Acid [30]; 2.5 ×10⁶ /M in the assay on Nucleic Acid [31]; 3.4 ×10⁶ /M with Nucleic Acid [32]; 1.4 ×10⁶ /M with Nucleic Acid [19]; 2.5 ×10⁶ /M with Nucleic Acid [33].
